Patent US9205069B2, “Inhibitors of anaphase promoting complex activity” (President and Fellows of Harvard College, priority 2009, dated 2015)

Tests used:
[1] = system: proteasomal degradation of ubiquitinated cyclin B1; assay: degradation of pre-ubiquitinated 35S-cyclin B1 in interphase extract; assay type: biochemical, Xenopus; settings: TAME 200 μM
Method: At indicated time points, all protein was precipitated and the level of radioactivity in supernatant was measured by scintillation counting. MG262 was used as a positive control.
A purified MPF complex containing 35S-labeled cyclin B1 was ubiquitinated by APC in a reconstituted ubiquitination system, and then added to interphase Xenopus extract in the presence or absence of inhibitors.

[2] = system: interaction between APC and IR peptide; assay: APC recruitment from interphase extract by IR peptide resin; assay type: binding, Xenopus; settings: 200 μM
Method: Top panel: Iodoacetyl resin was coupled with cysteine, a 21aa C-terminal peptide of Cdh1 or a 19aa peptide missing the C-terminal IR tail. The resin was incubated with interphase extract and the amount of Cdc27 bound on resin was analyzed.

[3] = system: cyclin B1 degradation and Cdc27 phosphorylation; assay: mitotic arrest in Xenopus extract after MPF addition (Western blot); assay type: biochemical; settings: 200 μM, interphase extract plus MPF
[4] = system: APC-Cdh1; assay: in vitro ubiquitination assay with interphase APC activated by recombinant Cdh1; assay type: biochemical, Xenopus; settings: 200 μM, added into ubiquitination reaction
Excerpt: APC was then immunoprecipitated and tested in an in vitro ubiquitination assay.

[5] = system: APC-dependent proteolysis; assay: cyclin B-luciferase degradation in mitotic Xenopus egg extract (luciferase assay); settings: derivatives tested at 200 μM
Method: Samples were collected at 60 minutes and the remaining reporter level was measured by luminescence. Interphase extract was used as a negative control.

[6] = system: APC-Cdc20; assay: in vitro ubiquitination assay with APC immunopurified from mitotic extract; assay type: biochemical, Xenopus; settings: 200 μM, added into ubiquitination reaction
Excerpt: APC was immunoprecipitated from mitotic extract and tested in an in vitro ubiquitination assay.

[7] = biological target: T1, human APC (Homo sapiens, UniProt P30260+Q13042+Q9UJX2+Q9UJX3); assay: 3H-TAME binding to APC in asynchronous HeLa cell lysate
T1 construct: endogenous in cells; host or cells: asynchronous HeLa cells (lysate)
Excerpt: The same experiment was done as described in 3C using asynchronous Hela cell lysate.

[8] = system: Xenopus APC; assay: 3H-TAME binding to APC in interphase extract (Cdc27 immunoprecipitation, scintillation counting); settings: 200 nM 3H TAME
Method: Interphase extract was subjected to three rounds of immunoprecipitation with Cdc27 antibody. […] The specific counts associated with the beads were determined by scintillation counting.
(§1) The specific counts associated with the beads were determined by scintillation counting.
as §1
In parallel, the amount of immunoprecipitated Cdc27 was determined by immunoblot.

Compound: CC(C)C[C@H](NC(=O)[C@H](CC(C)C)NC(=O)[C@H](CC(C)C)NC(=O)OCc1ccccc1)B(O)O [MG262]
- degradation of pre-ubiquitinated cyclin B1 [1]: strongly inhibited

Compound: COC(=O)[C@H](CCCNC(=N)N)NC(C)=O [AAME, acetyl-L-arginine methylester]
- APC recruitment by IR peptide resin [2]: no effect
- cyclin B1 and Cdc27 phosphorylation after MPF addition [3]: degraded by 30 min
- APC-Cdh1 activity, compound added directly to reconstituted assay [4]: did not inhibit APC
- activity of TAME derivatives in luciferase assay [5]: lowest activity
- APC ligase activity, compound added directly to reconstituted ubiquitination assay [6]: did not inhibit APC
- competition with specific 3H-TAME binding to human APC [7]: did not
- competition with specific binding of 3H-TAME to Xenopus APC [8]: did not
